From patent publication US7560471B2, “Indolylpiperidine derivatives as potent antihistaminic and antiallergic agents” (Laboratorios Almirall S.A., priority 2002, dated 2009)
pIC50: −log10 of the molar value.

Assays:
serotonin-5HT2 receptors = target: T1, serotonin-5HT2 receptors (Homo sapiens, UniProt P28223); assay: Serotonin-5HT2 receptor binding assay (3H-Ketanserin); settings: human frontal cerebral cortex membranes, 1 nM 3H-Ketanserin; read-out: 5HT-2
T1 construct: performed in human frontal cerebral cortex membranes; from tissue; host or cells: human frontal cerebral cortex membranes
Description: (§1) (1) Histamine-H1 Receptor Binding Assay
(3) Serotonin-5HT2 Receptor Binding Assay
The study of binding to serotonin-5HT2 receptors was performed in human frontal cerebral cortex membranes as described previously (Pazos et al., Eur. J. of Pharmacol, 1985, 106, 531-538). Briefly, the membrane suspensions (170 μg/ml) were incubated at 37° C. with 1 nM 3H-Ketanserin and different concentrations of the test compounds in a final volume of 250 μl. Binding reactions were terminated by filtration after 30 minutes of incubation under constant shaking and the bound radioactivity was measured. The non-specific binding was estimated in the presence of 10 μM mianserin. The affinity of each test compound to the receptor was determined by using at least six different concentrations run in duplicate. IC50 values were calculated by non-linear regression using SAS.

histamine-H1 receptors = histamine-H1 receptors (Cavia porcellus, UniProt P31389); assay: Histamine-H1 receptor binding assay ([3H]-mepyramine); settings: guinea pig cerebellum membranes, 0.7 nM [3H]-mepyramine
Description: as §1
The study of binding to histamine-H1 receptors was performed in guinea pig cerebellum membranes as described by Chang et al., J. Neurochem, 1979, 32, 1653-1663. Briefly, the membrane suspensions (160 μg/ml) were incubated at 30° C. with 0.7 nM [^3H]-mepyramine and different concentrations of the test compounds in a final volume of 250 μl. Binding reactions were terminated by filtration after 30 min of incubation and the bound radioactivity was determined. The non-specific binding was measured in the presence of 10 μM of promethazine. The affinity of each test compound to the receptor was determined by using at least six different concentrations run in duplicate. IC50 values were obtained by non-linear regression by use of SAS on a DEC AXP computer.

[1] = test system: histamine-induced papule (skin vascular permeability); assay: Histamine-induced skin vascular permeability in rats; assay type: in vivo, rat; settings: male Wistar rats, oral, 4 h after administration, inhibition of papule area vs vehicle
Description: as §1
(2) Histamine-Induced Skin Vascular Permeability in Rats
Male Wistar rats (180-210 g) were treated orally with the test compound or vehicle. Either one, four, eight or 24 hours later the rats were lightly anaesthetised with ether and a cutaneous reaction was induced by two intradermal injections of 50 μl of histamine (100 μg/ml) onto the back, followed by an intravenous injection of 3 ml/kg of Evan's Blue (5 mg/ml), both dissolved in saline. Sixty minutes later, the rats were killed by cervical dislocation and the back skin dissected free. The diameter (in millimetres) of the papule was measured in two directions and the area was calculated. Results are given as the % of inhibition at a given dose compared with the vehicle treated group.

histamine-H1 receptors, sequence (P31389 whole entry): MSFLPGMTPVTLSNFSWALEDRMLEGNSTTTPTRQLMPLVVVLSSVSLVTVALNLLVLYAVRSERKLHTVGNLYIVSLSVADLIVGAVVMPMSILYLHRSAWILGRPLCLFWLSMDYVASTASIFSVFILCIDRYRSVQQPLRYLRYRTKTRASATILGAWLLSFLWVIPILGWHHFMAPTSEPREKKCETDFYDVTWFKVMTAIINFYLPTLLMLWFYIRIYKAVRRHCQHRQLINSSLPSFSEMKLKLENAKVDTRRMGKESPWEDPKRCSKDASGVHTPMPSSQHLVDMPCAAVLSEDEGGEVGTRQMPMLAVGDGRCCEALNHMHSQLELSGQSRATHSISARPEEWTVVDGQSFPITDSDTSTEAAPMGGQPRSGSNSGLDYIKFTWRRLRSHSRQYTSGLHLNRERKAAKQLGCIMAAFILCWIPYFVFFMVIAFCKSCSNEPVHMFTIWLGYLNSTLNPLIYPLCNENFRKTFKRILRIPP
T1 sequence (P28223 whole entry): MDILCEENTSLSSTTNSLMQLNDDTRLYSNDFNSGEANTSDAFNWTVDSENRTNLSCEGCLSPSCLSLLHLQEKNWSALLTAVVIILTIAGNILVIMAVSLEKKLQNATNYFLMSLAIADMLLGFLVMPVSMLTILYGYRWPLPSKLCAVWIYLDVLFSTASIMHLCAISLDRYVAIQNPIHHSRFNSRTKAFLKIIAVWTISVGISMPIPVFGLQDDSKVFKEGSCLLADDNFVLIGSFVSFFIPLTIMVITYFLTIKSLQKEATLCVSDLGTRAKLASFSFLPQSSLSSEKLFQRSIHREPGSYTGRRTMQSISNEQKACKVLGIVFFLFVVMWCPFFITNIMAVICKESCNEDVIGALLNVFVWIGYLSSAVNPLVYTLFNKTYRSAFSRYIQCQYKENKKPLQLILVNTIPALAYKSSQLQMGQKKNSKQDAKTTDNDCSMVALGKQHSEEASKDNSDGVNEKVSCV

With COCCn1cc(C2CCN(Cc3ccc(OC)c(C(=O)O)c3)CC2)c2ccccc21 [Example 2, 2-methoxy-5-{4-[1-(2-methoxyethyl)-1H-indol-3-yl]piperidin-1-ylmethyl}benzoic acid] the pIC50 (serotonin-5HT2 receptors) was less than 5.00, the pIC50 (histamine-H1 receptors) was 6.33 and the “papule (4h) % inh a 1 mg/Kg” value [1] was 96%.

In the case of CCOCCn1cc(C2CCN(Cc3ccc(OC)c(C(=O)O)c3)CC2)c2ccc(F)cc21 [Example 4, 5-{4-[1-(2-ethoxyethyl)-6-fluoro-1H-indol-3-yl]piperidin-1-ylmethyl}-2-methoxybenzoic acid], the pIC50 (serotonin-5HT2 receptors) was 5.37, the pIC50 (histamine-H1 receptors) was 6.80 and the “papule (4h) % inh a 1 mg/Kg” value [1] was 89%.

For CCOCCn1cc(C2CCN(Cc3ccc(OC)c(C(=O)O)c3)CC2)c2ccccc21 [Example 1, 5-{4-[1-(2-ethoxyethyl)-1H-indol-3-yl]piperidin-1-ylmethyl}-2-methoxybenzoic acid], the pIC50 (serotonin-5HT2 receptors) was 5.27, the pIC50 (histamine-H1 receptors) was 6.84 and the “papule (4h) % inh a 1 mg/Kg” value [1] was 88%.

In the case of COCCn1cc(C2CCN(Cc3ccc(OC)c(C(=O)O)c3)CC2)c2ccc(F)cc21 [Example 5, 5-{4-[6-fluoro-1-(2-methoxyethyl)-1H-indol-3-yl]piperidin-1-ylmethyl}-2-methoxybenzoic acid], the pIC50 (serotonin-5HT2 receptors) was less than 5.00, the pIC50 (histamine-H1 receptors) was 6.61 and the “papule (4h) % inh a 1 mg/Kg” value [1] was 96%.

For CCCCn1cc(C2CCN(Cc3ccc(OC)c(C(=O)O)c3)CC2)c2ccccc21 [Example 3, 5-[4-(1-butyl-1H-indol-3-yl)-piperidin-1-ylmethyl]-2-methoxybenzoic acid], the pIC50 (serotonin-5HT2 receptors) was 5.35, the pIC50 (histamine-H1 receptors) was 6.89 and the “papule (4h) % inh a 1 mg/Kg” value [1] was 100%.
